{
  "source": "patent US20090314217A1",
  "about": "“APPARATUS AND METHOD FOR TREATING NON-HUMAN MAMMALS” (Under The Boardwalk Properties 8 (Proprietary) Limited, priority 2006, published 2009)",
  "assay": "Blood tests on the horses on the days of the race (Table 1)",
  "type": "in vivo, horse",
  "settings": "for PCT: day 1 value 0.04; for RBC = red blood cell count: day 1 value 10.2; for WBC = white blood cell count: day 1 value 12.8; for RDWc: day 1 value 22.5; for PDW: day 1 value 32.6; for TBIL = total biliruben: day 1 value 37; for TP = total protein: day 1 value 79; for PLT = platelets: day 1 value 83",
  "description": "The apparatus 10 was used in a confidential trial to treat five horses taking part in an endurance race. The five horses were called Moniq, Shamon, Pauli, Viola and Ophelia. During treatment, the average temperature inside the enclosure 22 was between 42° C. and 45° C. and an oxygen flow rate of 1 l/min was supplied to the ozonator 52. During treatment, the average heart-rate for the non-accustomed horses was 42 beats per minute. The superficial skin temperature measured on the neck and the point of the shoulder of the horses was 39° C. in each case.\nTable 1 provides information on the blood tests conducted on the five horses, on the days of the race as indicated.",
  "key": {"[1]": {"settings": "horse Moniq, race day 2, treated days 1 and 2"}, "[2]": {"settings": "horse Moniq, race day 2, treated days 1 and 2, day 1 value 4.4"}, "[3]": {"settings": "horse Moniq, race day 3, treated days 1 and 2"}, "[4]": {"settings": "horse Moniq, race day 3, treated days 1 and 2, day 1 value 4.4"}, "[5]": {"settings": "horse Pauli, race day 2, pre-treated before race"}},
  "data": [
    {"smiles": "O=[O+][O-]", "note": "[ozone]", "values": [
      {"measurement": "PCT", "setting": "[1]", "result": 0.07, "unit": "%"},
      {"measurement": "MON = monocytes", "setting": "horse Moniq, race day 2, treated days 1 and 2, day 1 value 0.57", "result": "6e+07", "unit": "L⁻¹"},
      {"measurement": "LYM = lymphocytes", "setting": "horse Moniq, race day 2, treated days 1 and 2, day 1 value 1.80", "result": "1.96e+09", "unit": "L⁻¹"},
      {"measurement": "CA++ = calcium", "setting": "horse Moniq, race day 2, treated days 1 and 2, day 1 value 2.98", "result": 2.98, "unit": "mmol/L"},
      {"measurement": "K+ = potassium", "setting": "[2]", "result": 4.3, "unit": "mmol/L"},
      {"measurement": "MON % = monocytes percentage", "setting": "[2]", "result": 0.6, "unit": "%"},
      {"measurement": "GLU = glucose", "setting": "horse Moniq, race day 2, treated days 1 and 2, day 1 value 4.7", "result": 6.1, "unit": "mmol/L"},
      {"measurement": "BUN = blood urea nitrogen", "setting": "horse Moniq, race day 2, treated days 1 and 2, day 1 value 8", "result": 9, "unit": "mmol/L"},
      {"measurement": "RBC = red blood cell count", "setting": "[1]", "result": "9.21e+12", "unit": "L⁻¹"},
      {"measurement": "GRA = granulocytes", "setting": "horse Moniq, race day 2, treated days 1 and 2, day 1 value 10.5", "result": "7.55e+09", "unit": "L⁻¹"},
      {"measurement": "GGT = gamma glutamiel transferase", "setting": "horse Moniq, race day 2, treated days 1 and 2, day 1 value 12", "result": 11, "unit": "Units/liter"},
      {"measurement": "WBC = white blood cell count", "setting": "[1]", "result": "9.56e+09", "unit": "L⁻¹"},
      {"measurement": "LY % = lymphocytes percentage", "setting": "horse Moniq, race day 2, treated days 1 and 2, day 1 value 14.0", "result": 20.5, "unit": "%"},
      {"measurement": "MCH = mean corpuscular hemoglobin", "setting": "horse Moniq, race day 2, treated days 1 and 2, day 1 value 15.1", "result": 14.7, "unit": "pg"},
      {"measurement": "HB = hemoglobin", "setting": "horse Moniq, race day 2, treated days 1 and 2, day 1 value 15.5", "result": 13.6, "unit": "d/deciliter"},
      {"measurement": "RDWc", "setting": "[1]", "result": 22.2, "unit": "%"},
      {"measurement": "PDW", "setting": "[1]", "result": 37.2},
      {"measurement": "ALB = albumin", "setting": "horse Moniq, race day 2, treated days 1 and 2, day 1 value 36", "result": 34, "unit": "gram/liter"},
      {"measurement": "TBIL = total biliruben", "setting": "[1]", "result": 58, "unit": "µmol/L"},
      {"measurement": "MCV = mean corpuscular volume", "setting": "horse Moniq, race day 2, treated days 1 and 2, day 1 value 38", "result": 37, "unit": "femtoliter"},
      {"measurement": "MCHC = mean corpuscular hemoglobin concentration", "setting": "horse Moniq, race day 2, treated days 1 and 2, day 1 value 40.0", "result": 39.6, "unit": "gram/deciliter"},
      {"measurement": "GLOB = globulin", "setting": "horse Moniq, race day 2, treated days 1 and 2, day 1 value 43", "result": 40, "unit": "gram/liter"},
      {"measurement": "TP = total protein", "setting": "[1]", "result": 75, "unit": "gram/liter"},
      {"measurement": "GR % = granulocytes percentage", "setting": "horse Moniq, race day 2, treated days 1 and 2, day 1 value 81.6", "result": 78.9, "unit": "%"},
      {"measurement": "PLT = platelets", "setting": "[1]", "result": "1.24e+11", "unit": "L⁻¹"},
      {"measurement": "CRE = creatinine", "setting": "horse Moniq, race day 2, treated days 1 and 2, day 1 value 96", "result": 106, "unit": "µmol/L"},
      {"measurement": "Na+ = sodium", "setting": "horse Moniq, race day 2, treated days 1 and 2, day 1 value 139", "result": 137, "unit": "mmol/L"},
      {"measurement": "AST = aspertate amino transferase", "setting": "horse Moniq, race day 2, treated days 1 and 2, day 1 value 468", "result": 564, "unit": "Units/liter"},
      {"measurement": "CK = creatine kinase", "setting": "horse Moniq, race day 2, treated days 1 and 2, day 1 value 3873", "result": 706, "unit": "International Units/liter"},
      {"measurement": "PCT", "setting": "[3]", "result": 0.07, "unit": "%"},
      {"measurement": "MON = monocytes", "setting": "horse Moniq, race day 3, treated days 1 and 2, day 1 value 0.57", "result": "6e+07", "unit": "L⁻¹"},
      {"measurement": "LYM = lymphocytes", "setting": "horse Moniq, race day 3, treated days 1 and 2, day 1 value 1.80", "result": "1.06e+09", "unit": "L⁻¹"},
      {"measurement": "CA++ = calcium", "setting": "horse Moniq, race day 3, treated days 1 and 2, day 1 value 2.98", "result": 2.98, "unit": "mmol/L"},
      {"measurement": "K+ = potassium", "setting": "[4]", "result": 4.3, "unit": "mmol/L"},
      {"measurement": "MON % = monocytes percentage", "setting": "[4]", "result": 0.6, "unit": "%"},
      {"measurement": "GLU = glucose", "setting": "horse Moniq, race day 3, treated days 1 and 2, day 1 value 4.7", "result": 6.1, "unit": "mmol/L"},
      {"measurement": "BUN = blood urea nitrogen", "setting": "horse Moniq, race day 3, treated days 1 and 2, day 1 value 8", "result": 9, "unit": "mmol/L"},
      {"measurement": "RBC = red blood cell count", "setting": "[3]", "result": "9.21e+12", "unit": "L⁻¹"},
      {"measurement": "GRA = granulocytes", "setting": "horse Moniq, race day 3, treated days 1 and 2, day 1 value 10.5", "result": "7.55e+09", "unit": "L⁻¹"},
      {"measurement": "GGT = gamma glutamiel transferase", "setting": "horse Moniq, race day 3, treated days 1 and 2, day 1 value 12", "result": 11, "unit": "Units/liter"},
      {"measurement": "WBC = white blood cell count", "setting": "[3]", "result": "9.56e+09", "unit": "L⁻¹"},
      {"measurement": "LY % = lymphocytes percentage", "setting": "horse Moniq, race day 3, treated days 1 and 2, day 1 value 14.0", "result": 20.5, "unit": "%"},
      {"measurement": "MCH = mean corpuscular hemoglobin", "setting": "horse Moniq, race day 3, treated days 1 and 2, day 1 value 15.1", "result": 14.7, "unit": "pg"},
      {"measurement": "HB = hemoglobin", "setting": "horse Moniq, race day 3, treated days 1 and 2, day 1 value 15.5", "result": 17.0, "unit": "d/deciliter"},
      {"measurement": "RDWc", "setting": "[3]", "result": 22.2, "unit": "%"},
      {"measurement": "PDW", "setting": "[3]", "result": 37.2},
      {"measurement": "ALB = albumin", "setting": "horse Moniq, race day 3, treated days 1 and 2, day 1 value 36", "result": 34, "unit": "gram/liter"},
      {"measurement": "TBIL = total biliruben", "setting": "[3]", "result": 58, "unit": "µmol/L"},
      {"measurement": "MCV = mean corpuscular volume", "setting": "horse Moniq, race day 3, treated days 1 and 2, day 1 value 38", "result": 37, "unit": "femtoliter"},
      {"measurement": "MCHC = mean corpuscular hemoglobin concentration", "setting": "horse Moniq, race day 3, treated days 1 and 2, day 1 value 40.0", "result": 39.6, "unit": "gram/deciliter"},
      {"measurement": "GLOB = globulin", "setting": "horse Moniq, race day 3, treated days 1 and 2, day 1 value 43", "result": 40, "unit": "gram/liter"},
      {"measurement": "TP = total protein", "setting": "[3]", "result": 75, "unit": "gram/liter"},
      {"measurement": "GR % = granulocytes percentage", "setting": "horse Moniq, race day 3, treated days 1 and 2, day 1 value 81.6", "result": 78.8, "unit": "%"},
      {"measurement": "PLT = platelets", "setting": "[3]", "result": "1.27e+11", "unit": "L⁻¹"},
      {"measurement": "CRE = creatinine", "setting": "horse Moniq, race day 3, treated days 1 and 2, day 1 value 96", "result": 106, "unit": "µmol/L"},
      {"measurement": "Na+ = sodium", "setting": "horse Moniq, race day 3, treated days 1 and 2, day 1 value 139", "result": 137, "unit": "mmol/L"},
      {"measurement": "AST = aspertate amino transferase", "setting": "horse Moniq, race day 3, treated days 1 and 2, day 1 value 468", "result": 564, "unit": "Units/liter"},
      {"measurement": "CK = creatine kinase", "setting": "horse Moniq, race day 3, treated days 1 and 2, day 1 value 3873", "result": 706, "unit": "International Units/liter"},
      {"measurement": "ALB = albumin", "setting": "[5]", "result": 32, "unit": "gram/liter"},
      {"measurement": "AST = aspertate amino transferase", "setting": "[5]", "result": 379, "unit": "Units/liter"},
      {"measurement": "BUN = blood urea nitrogen", "setting": "[5]", "result": 9, "unit": "mmol/L"},
      {"measurement": "CA++ = calcium", "setting": "[5]", "result": 3.13, "unit": "mmol/L"},
      {"measurement": "CK = creatine kinase", "setting": "[5]", "result": 1378, "unit": "International Units/liter"},
      {"measurement": "CRE = creatinine", "setting": "[5]", "result": 129, "unit": "µmol/L"},
      {"measurement": "GGT = gamma glutamiel transferase", "setting": "[5]", "result": 19, "unit": "Units/liter"},
      {"measurement": "GLOB = globulin", "setting": "[5]", "result": 47, "unit": "gram/liter"},
      {"measurement": "GLU = glucose", "setting": "[5]", "result": "*6.9 mmol/liter"},
      {"measurement": "GR % = granulocytes percentage", "setting": "[5]", "result": 88.0, "unit": "%"},
      {"measurement": "GRA = granulocytes", "setting": "[5]", "result": "1.76e+10", "unit": "L⁻¹"},
      {"measurement": "HB = hemoglobin", "setting": "[5]", "result": 16.6, "unit": "d/deciliter"},
      {"measurement": "K+ = potassium", "setting": "[5]", "result": 5.1, "unit": "mmol/L"},
      {"measurement": "LY % = lymphocytes percentage", "setting": "[5]", "result": 7.0, "unit": "%"},
      {"measurement": "LYM = lymphocytes", "setting": "[5]", "result": "1.39e+09", "unit": "L⁻¹"},
      {"measurement": "MCH = mean corpuscular hemoglobin", "setting": "[5]", "result": 15.8, "unit": "pg"},
      {"measurement": "MCHC = mean corpuscular hemoglobin concentration", "setting": "[5]", "result": 38.8, "unit": "gram/deciliter"},
      {"measurement": "MCV = mean corpuscular volume", "setting": "[5]", "result": 41, "unit": "femtoliter"},
      {"measurement": "MON % = monocytes percentage", "setting": "[5]", "result": 4.0, "unit": "%"},
      {"measurement": "MON = monocytes", "setting": "[5]", "result": "8e+08", "unit": "L⁻¹"},
      {"measurement": "Na+ = sodium", "setting": "[5]", "result": 143, "unit": "mmol/L"}
    ]}
  ]
}
